We go through 9 molecules from patent publication US20260070945A1, “MACROCYCLIC IMMUNOMODULATORS” (Bristol-Myers Squibb Company, priority 2022, published 2026).

Molecules are shown by their SMILES. *1 amine or outer side, *2 acyl side, *3 side chain or, on linkers, in order; H or OH if unused. Where a SMILES comes first, the peptide text is derived from it. Bridges are numbered along the chain shown (N, C = ends). [ ]: non-standard residue; d: D form. The star is where a group is joined. ξ: configuration not given here. Phe(4-COOH) = N[C@@H](Cc1ccc(C(=O)O)cc1)C(=O)O; Bip = N[C@@H](Cc1ccc(-c2ccccc2)cc1)C(=O)O; γGlu = O=C(O)[C@H](CCC(=O)[*:2])N[*:1]; 3Pal = N[C@@H](Cc1cccnc1)C(=O)O; 4Pal = N[C@@H](Cc1ccncc1)C(=O)O; Cha = N[C@@H](CC1CCCCC1)C(=O)O; Ile(3ξ) = CCC(C)[C@H](N)C(=O)O; Carboxymethyl = O=C(O)C*; NMeA = CN[C@@H](C)C(=O)O; Orn = NCCC[C@H](N)C(=O)O; dDap = NC[C@@H](N)C(=O)O; Aun = NCCCCCCCCCCC(=O)O; Dab = NCC[C@H](N)C(=O)O; Dap = NC[C@H](N)C(=O)O; AEEA = NCCOCCOCC(=O)O

For this test, the target named is T1, PD-1/PD-L1 interaction (PE-labeled human PD-L1-Ig binding to Jurkat cell line over-expressing human PD-1) (Homo sapiens, UniProt Q15116).
T1 construct: expressed in transfected cells; host or cells: Jurkat
T1 sequence (Q15116 25-288): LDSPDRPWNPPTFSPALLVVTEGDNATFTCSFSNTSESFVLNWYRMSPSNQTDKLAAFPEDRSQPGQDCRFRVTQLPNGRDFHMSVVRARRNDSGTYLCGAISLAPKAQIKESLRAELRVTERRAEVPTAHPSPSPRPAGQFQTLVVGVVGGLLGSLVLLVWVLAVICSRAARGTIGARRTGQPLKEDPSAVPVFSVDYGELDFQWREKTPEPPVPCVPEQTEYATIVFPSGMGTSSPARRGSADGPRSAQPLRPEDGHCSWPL
Kind of test: Jurkat-PD-1 Cell Binding High-Content Screening Assay (CBA). To be noted: Jurkat-hPD-1 cells, PE-labeled PD-L1-Ig 20 nM final; read-out: Jurkat HPD1 PDL1 IC50. In outline:
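Compound is added first to the PD-1-expressing Jurkat cells and held 2 h at 37 °C in serum-containing DMEM. The fluorescent PD-L1 fusion follows at 20 nM final for 1 h. Fixed, Hoechst-stained cells are then imaged for bound label.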
One may read the IC50 as the midpoint of a concentration-inhibition curve. As to `CCC(C)[C@@H]1NC(=O)[C@H](Cc2ccc(-c3ccccc3)cc2)NC(=O)[C@H](C(C)C)NC(=O)[C@H](Cc2c[nH]c3ccccc23)NC(=O)[C@H](CC(=O)O)NC(=O)[C@H](Cc2ccc(O)cc2)NC(=O)[C@H](CC(N)=O)NC(=O)CSC[C@@H](C(=O)N[C@H](CC(N)=O)C(=O)NCCOCCOCC(=O)NCCCCCCCCCCC(=O)O)NC(=O)[C@H](CO)NC(=O)[C@H](C(C)C)NC(=O)[C@H](CC(C)C)NC(=O)[C@H](CCN)NC(=O)[C@@H](CC(C)C)NC(=O)[C@H](C)N(C)C1=O` (stereo partly drawn) [Example 2059] ({CH2CO}-NYDWV[Bip][Ile(3ξ)][NMeA][dL][Dab]LVSC[dN][AEEA][Aun]-OH; thioether N-14), the IC50 came to 34.2 nM. On to `CCC(C)[C@@H]1NC(=O)[C@H](Cc2ccc(-c3ccccc3)cc2)NC(=O)[C@H](C(C)C)NC(=O)[C@H](Cc2c[nH]c3ccccc23)NC(=O)[C@H](CC(=O)O)NC(=O)[C@H](Cc2ccc(OCC(=O)O)cc2)NC(=O)[C@H](Cc2cccnc2)NC(=O)CSC[C@@H](C(=O)N[C@H](CC(N)=O)C(=O)NCCOCCOCC(=O)N[C@@H](CCC(=O)N[C@@H](CCCN)C(=O)NCCCCCCCCCCC(=O)O)C(=O)O)NC(=O)[C@H](CO)NC(=O)[C@H](C(C)C)NC(=O)[C@H](CC(C)C)NC(=O)[C@H](CCN)NC(=O)[C@@H](CC(C)C)NC(=O)[C@H](C)N(C)C1=O` (stereo partly drawn) [Example 2060] ({CH2CO}-[3Pal]Y(Carboxymethyl)DWV[Bip][Ile(3ξ)][NMeA][dL][Dab]LVSC[dN][AEEA][γGlu][Orn][Aun]-OH; thioether N-14), for which the IC50 was determined as 78 nM. Consider `CCC(C)[C@@H]1NC(=O)[C@H](Cc2ccc(-c3ccccc3)cc2)NC(=O)[C@H](CC(C)C)NC(=O)[C@H](Cc2c[nH]c3ccccc23)NC(=O)[C@H](CC(=O)O)NC(=O)[C@H](Cc2ccc(O)cc2)NC(=O)[C@H](Cc2ccncc2)NC(=O)CSC[C@@H](C(=O)N[C@H](CC(N)=O)C(=O)NCCOCCOCC(=O)N[C@@H](CCN)C(=O)NCCOCCOCC(=O)NCCCCCCCCCCC(=O)O)NC(=O)[C@H](CO)NC(=O)[C@H](C(C)C)NC(=O)[C@H](CC(C)C)NC(=O)[C@H](CC(N)=O)NC(=O)[C@@H](CC(C)C)NC(=O)[C@H](C)N(C)C1=O` (stereo partly drawn) [Example 2061] ({CH2CO}-[4Pal]YDWL[Bip][Ile(3ξ)][NMeA][dL]NLVSC[dN][AEEA][Dab][AEEA][Aun]-OH; thioether N-14), for which the IC50 amounted to 777 nM. Regarding `CCC(C)[C@@H]1NC(=O)[C@H](Cc2ccc(-c3ccccc3)cc2)NC(=O)[C@H](CC(C)C)NC(=O)[C@H](Cc2c[nH]c3ccccc23)NC(=O)[C@H](CC(=O)O)NC(=O)[C@H](Cc2ccc(OCC(=O)O)cc2)NC(=O)[C@H](Cc2ccncc2)NC(=O)CSC[C@@H](C(=O)NCCOCCOCC(=O)N[C@@H](CCCN)C(=O)NCCCCCCCCCCC(=O)O)NC(=O)[C@H](CO)NC(=O)[C@H](C(C)C)NC(=O)[C@H](CC(C)C)NC(=O)[C@H](CC(N)=O)NC(=O)[C@@H](CC(C)C)NC(=O)[C@H](C)N(C)C1=O` (stereo partly drawn) [Example 2062] ({CH2CO}-[4Pal]Y(Carboxymethyl)DWL[Bip][Ile(3ξ)][NMeA][dL]NLVSC[AEEA][Orn][Aun]-OH; thioether N-14), the half-maximal inhibitory concentration (IC50) came to 38.1 nM. In the case of `CCC(C)[C@@H]1NC(=O)[C@H](Cc2ccc(-c3ccccc3)cc2)NC(=O)[C@H](CC(C)C)NC(=O)[C@H](Cc2c[nH]c3ccccc23)NC(=O)[C@H](CC(=O)O)NC(=O)[C@H](Cc2ccc(O)cc2)NC(=O)[C@H](CC(N)=O)NC(=O)CSC[C@@H](C(=O)N[C@H](CC(N)=O)C(=O)NCCOCCOCC(=O)NCCCCCCCCCCC(=O)O)NC(=O)[C@H](CO)NC(=O)[C@H](C(C)C)NC(=O)[C@H](CC(C)C)NC(=O)[C@H](CCN)NC(=O)[C@@H](CC(C)C)NC(=O)[C@H](C)N(C)C1=O` (stereo partly drawn) [Example 2063] ({CH2CO}-NYDWL[Bip][Ile(3ξ)][NMeA][dL][Dab]LVSC[dN][AEEA][Aun]-OH; thioether N-14), the IC50 is 65 nM. With `CCC(C)[C@@H]1NC(=O)[C@H](Cc2ccc(-c3ccccc3)cc2)NC(=O)[C@H](CC(C)C)NC(=O)[C@H](Cc2c[nH]c3ccccc23)NC(=O)[C@H](CC(=O)O)NC(=O)[C@H](Cc2ccc(OCC(=O)O)cc2)NC(=O)[C@H](Cc2ccncc2)NC(=O)CSC[C@@H](C(=O)N[C@H](CC(N)=O)C(=O)NCCOCCOCC(=O)NCCCCCCCCCCC(=O)O)NC(=O)[C@H](CO)NC(=O)[C@H](C(C)C)NC(=O)[C@H](CC(C)C)NC(=O)[C@H](CCN)NC(=O)[C@@H](CC(C)C)NC(=O)[C@H](C)N(C)C1=O` (stereo partly drawn) [Example 2064] ({CH2CO}-[4Pal]Y(Carboxymethyl)DWL[Bip][Ile(3ξ)][NMeA][dL][Dab]LVSC[dN][AEEA][Aun]-OH; thioether N-14), the IC50 came out at 21.1 nM. Take `CCC(C)[C@@H]1NC(=O)[C@H](Cc2ccc(-c3ccccc3)cc2)NC(=O)[C@H](CC(C)C)NC(=O)[C@H](Cc2c[nH]c3ccccc23)NC(=O)[C@H](CC(=O)O)NC(=O)[C@H](Cc2ccc(C(=O)O)cc2)NC(=O)[C@H](Cc2ccc(OCC(=O)O)cc2)NC(=O)CSC[C@@H](C(=O)N[C@H](CC(N)=O)C(=O)NCCOCCOCC(=O)NCCCCCCCCCCC(=O)O)NC(=O)[C@H](CO)NC(=O)[C@H](C(C)C)NC(=O)[C@H](CC2CCCCC2)NC(=O)[C@H](CCN)NC(=O)[C@@H](CC(C)C)NC(=O)[C@H](C)N(C)C1=O` (stereo partly drawn) [Example 2065] ({CH2CO}-Y(Carboxymethyl)[Phe(4-COOH)]DWL[Bip][Ile(3ξ)][NMeA][dL][Dab][Cha]VSC[dN][AEEA][Aun]-OH; thioether N-14): the IC50 came to 17.3 nM. Turning to `CCC(C)[C@@H]1NC(=O)[C@H](Cc2ccc(-c3ccccc3)cc2)NC(=O)[C@H](CC(C)C)NC(=O)[C@H](Cc2c[nH]c3ccccc23)NC(=O)[C@H](CC(=O)O)NC(=O)[C@H](Cc2ccc(C(=O)O)cc2)NC(=O)[C@H](Cc2ccc(OCC(=O)O)cc2)NC(=O)CSC[C@@H](C(=O)NCCOCCOCC(=O)N[C@@H](CN)C(=O)NCCCCCCCCCCC(=O)O)NC(=O)[C@H](CO)NC(=O)[C@H](C(C)C)NC(=O)[C@H](CC2CCCCC2)NC(=O)[C@H](CC(N)=O)NC(=O)[C@@H](CC(C)C)NC(=O)[C@H](C)N(C)C1=O` (stereo partly drawn) [Example 2066] ({CH2CO}-Y(Carboxymethyl)[Phe(4-COOH)]DWL[Bip][Ile(3ξ)][NMeA][dL]N[Cha]VSC[AEEA][Dap][Aun]-OH; thioether N-14), the concentration for half-maximal inhibition (IC50) turned out to be 110 nM. As for `CCC(C)[C@@H]1NC(=O)[C@H](Cc2ccc(-c3ccccc3)cc2)NC(=O)[C@H](C(C)C)NC(=O)[C@H](Cc2c[nH]c3ccccc23)NC(=O)[C@H](CC(=O)O)NC(=O)[C@H](Cc2ccc(OCC(=O)O)cc2)NC(=O)[C@H](Cc2ccncc2)NC(=O)CSC[C@@H](C(=O)N[C@H](CN)C(=O)NCCOCCOCC(=O)N[C@@H](CCC(=O)NCCCCCCCCCCC(=O)O)C(=O)O)NC(=O)[C@H](CO)NC(=O)[C@H](C(C)C)NC(=O)[C@H](CC2CCCCC2)NC(=O)[C@H](CC(N)=O)NC(=O)[C@@H](CC(C)C)NC(=O)[C@H](C)N(C)C1=O` (stereo partly drawn) [Example 2067] ({CH2CO}-[4Pal]Y(Carboxymethyl)DWV[Bip][Ile(3ξ)][NMeA][dL]N[Cha]VSC[dDap][AEEA][γGlu][Aun]-OH; thioether N-14), the concentration for half-maximal inhibition (IC50) stood at 35.2 nM.
